For eight molecules, IC50 results are on record in US20250154138A1, “Small Molecule IL-17A Modulators” (BeiGene, Ltd., priority 2022, published 2025).

Test [1] addresses human IL-17A / human IL-17RA (Homo sapiens (Human), UniProt Q16552). Kind of test: Human IL-17A biochemical assay (HTRF, blocking of IL-17A binding to IL-17RA). To be noted: 0.4 nM IL-17A, 0.3 nM IL-17RA, max compound concentration 10 uM. The procedure, abridged:
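HTRF competition: 0.4 nM recombinant human IL-17A pre-incubated 3 h at room temperature with compound (top 10 uM, 2.7-fold, 10 points) in HEPES pH 7.5 buffer, then 0.3 nM IL-17RA added for 1 h, then anti-6His-Tb/anti-human IgG-XL665 detection for 1 h.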
Background: TR-FRET usually uses a lanthanide donor and a delayed reading to cut background.

The subject of test [2] is IL-17-induced GROα secretion from HT-29 cells. Kind of test: GROα release assay in human colorectal adenocarcinoma epithelial cell (HT-29, ELISA). The format is cell-based. To be noted: Homo sapiens, HT-29, 48 h, 10 ng/mL IL-17A, highest concentration 10 μM, read-out: Cellular assay HT29 cell/CXCL1 IC50. The procedure, abridged:
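HT-29 cells were exposed 48 h at 37°C to IL-17A (final 10 ng/mL) preincubated 15 min with compound (4-fold dilutions, top 10 μM). Secreted GROα was quantified by ELISA against a standard curve, and IC50 obtained by four-parameter fitting.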
On the technique in general: ELISA stands for enzyme-linked immunosorbent assay.

human IL-17A / human IL-17RA, sequence (Q16552 24-155): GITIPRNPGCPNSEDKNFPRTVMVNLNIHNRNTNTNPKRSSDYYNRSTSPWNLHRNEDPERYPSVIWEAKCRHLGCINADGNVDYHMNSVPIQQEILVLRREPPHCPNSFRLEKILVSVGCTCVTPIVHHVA

For the molecule `CNC(=O)C1(N2CC3(CC3)CNC2=O)Cc2ccc(NC(=O)C(NC(=O)c3ccnn3C)C3CCC(C(C)(F)F)CC3)cc2C1` (stereo not shown) [Example 143, N-(1-(4-(1,1-difluoroethyl)cyclohexyl)-2-((2-(methylcarbamoyl)-2-(6-oxo-5,7-diazaspiro[2.5]octan-5-yl)-2,3-dihydro-1H-inden-5-yl)amino)-2-oxoethyl)-1-methyl-1H-pyrazole-5-carboxamide], the IC50 in test [1] came out at 163 nM; in test [2], 772 nM.
Take `Cc1nonc1C(=O)N[C@H](C(=O)Nc1ccc2c(c1)CC(C(=O)Nc1ccncc1Cl)(N1C[C@@H](C(C)C)NC1=O)C2)C(C1CC1)C1CC1` (stereo partly drawn) [Example 284, N-((2S)-1-((2-((3-chloropyridin-4-yl)carbamoyl)-2-((R)-4-isopropyl-2-oxoimidazolidin-1-yl)-2,3-dihydro-1H-inden-5-yl)amino)-3,3-dicyclopropyl-1-oxopropan-2-yl)-4-methyl-1,2,5-oxadiazole-3-carboxamide]: the IC50 came to 268 nM in test [1] and 354 nM in test [2].
With `CC[C@@H]1CN(C2(C(=O)NC)Cc3ccc(NC(=O)[C@@H](NC(=O)c4ccnn4C)C4CCCCC4)cc3C2)C(=O)N1` (stereo partly drawn) [Example 19, N-((1S)-1-cyclohexyl-2-((2-((R)-4-ethyl-2-oxoimidazolidin-1-yl)-2-(methylcarbamoyl)-2,3-dihydro-1H-inden-5-yl)amino)-2-oxoethyl)-1-methyl-1H-pyrazole-5-carboxamide], the IC50 in test [1] was 60 nM; in test [2], 262 nM.
Regarding `CCC(CC)OC(=O)C1(N2CC3(CC3)CNC2=O)Cc2ccc(NC(=O)[C@@H](NC(=O)c3nonc3C)C3CCC(F)(F)CC3)cc2C1` (stereo partly drawn) [Example 207, pentan-3-yl 5-((S)-2-(4,4-difluorocyclohexyl)-2-(4-methyl-1,2,5-oxadiazole-3-carboxamido)acetamido)-2-(6-oxo-5,7-diazaspiro[2.5]octan-5-yl)-2,3-dihydro-1H-indene-2-carboxylate], the IC50 in test [1] is 347 nM; in test [2] it was 861 nM.
As to `Cc1nonc1C(=O)N[C@H](C(=O)Nc1ccc2c(c1)CC(C(=O)Nc1cccc(F)c1)(N1C[C@@H](C(C)C)NC1=O)C2)C(C1CC1)C1CC1` (stereo partly drawn) [Example 236, N-((2S)-1,1-dicyclopropyl-3-((2-((3-fluorophenyl)carbamoyl)-2-((R)-4-isopropyl-2-oxoimidazolidin-1-yl)-2,3-dihydro-1H-inden-5-yl)amino)-3-oxopropan-2-yl)-4-methyl-1,2,5-oxadiazole-3-carboxamide], the figures for the IC50 in test [1] and in test [2] were 245 nM and 537 nM, respectively.
Taken in the same sequence, the figures for `CNC(=O)C1(N2C[C@@H](C(C)C)NC2=O)Cc2cc(F)c(NC(=O)[C@@H](NC(=O)c3ccnn3C)C3CCCCC3)cc2C1` (stereo partly drawn) [Example 119, N-((1S)-1-cyclohexyl-2-((6-fluoro-2-((R)-4-isopropyl-2-oxoimidazolidin-1-yl)-2-(methylcarbamoyl)-2,3-dihydro-1H-inden-5-yl)amino)-2-oxoethyl)-1-methyl-1H-pyrazole-5-carboxamide] were 73 nM and 144 nM.
Take `COCC1(N2CC3(CC3)CNC2=O)Cc2ccc(NC(=O)[C@@H](NC(=O)c3ccnn3C)C(C3CC3)C3CC3)cc2C1` (stereo partly drawn) [Example 159, N-((2S)-1,1-dicyclopropyl-3-((2-(methoxymethyl)-2-(6-oxo-5,7-diazaspiro[2.5]octan-5-yl)-2,3-dihydro-1H-inden-5-yl)amino)-3-oxopropan-2-yl)-1-methyl-1H-pyrazole-5-carboxamide]: the results for the IC50 in test [1] and in test [2] were 53.2 nM and 187 nM, respectively.
For `CNC(=O)C1(N2CC(C(C)(C)C)NC2=O)Cc2ccc(NC(=O)[C@@H](NC(=O)c3ccnn3C)C3CCCCC3)cc2C1` (stereo partly drawn) [Example 44, N-((1S)-2-((2-(4-(tert-butyl)-2-oxoimidazolidin-1-yl)-2-(methylcarbamoyl)-2,3-dihydro-1H-inden-5-yl)amino)-1-cyclohexyl-2-oxoethyl)-1-methyl-1H-pyrazole-5-carboxamide], the IC50 in test [1] was found to be 47 nM; in test [2], 231 nM.
